The assay deals with T1, human 11β-HSD1 (Homo sapiens, UniProt P28845).
T1 construct: expressed in transfected cells; host or cells: CHO cells (microsomes)
Briefly: Biological Test Example 1: inhibition of microsomal preparation of 11β-HSD1 (SPA). Conditions: for IC50: microsomes from CHO cells overexpressing human 11β-HSD1; for inhibition at 0.1 µM: read-out: Average % inhibition at 100 nM; for Average % inhibition at 100 nM: 0.1 µM. Format: biochemical. The procedure: The inhibition of microsomal preparation of 11β-HSD1 by compounds of the invention was measured essentially as previously described (K. Solly, S. S. Mundt, H. J. Zokian, G. J. Ding, A. Hermanowski-Vosatka, B. Strulovici, and W. Zheng, High-Throughput Screening of 11-Beta-Hydroxysteroid Dehydrogenase Type 1 in Scintillation Proximity Assay Format. Assay Drug Dev Technol 3 (2005) 377-384). All reactions were carried out at room temperature in 96 well clear flexible PET Microbeta plates (PerkinElmer). The assay begins by dispensing 49 μl of substrate solution (50 mM HEPES, pH 7.4, 100 mM KCl, 5 mM NaCl, 2 mM MgCl2, 2 mM NADPH and 160 nM [^3H]cortisone (1 Ci/mmol)) and mixing in 1 μL of the test compounds in DMSO previously diluted in half-log increments (8 points) starting at 0.1 mM. After a 10 minute pre-incubation, 50 μL of enzyme solution containing microsomes isolated from CHO cells overexpressing human 11β-HSD1 (10-20 μg/ml of total protein) was added, and the plates were incubated for 90 minutes at room temperature. The reaction was stopped by adding 50 μl of the SPA beads suspension containing 10 μM 18β-glycyrrhetinic acid, 5 mg/ml protein A coated YSi SPA beads (GE Healthcare) and 3.3 μg/ml of anti-cortisol antibody (East Coast Biologics) in Superblock buffer (Bio-Rad). The plates were shaken for 120 minutes at room temperature, and the SPA signal corresponding to [^3H]cortisol was measured on a Microbeta plate reader.

SMILES strings stand for the structures. Read-outs that look alike come from different tables or passages of the source. Some results are limits rather than exact numbers.

Broadly, the IC50 is the concentration that inhibits the measured activity by half. Usually inhibition stands for the change of the read-out against control, counted positive when it falls.

T1 sequence (P28845 whole entry): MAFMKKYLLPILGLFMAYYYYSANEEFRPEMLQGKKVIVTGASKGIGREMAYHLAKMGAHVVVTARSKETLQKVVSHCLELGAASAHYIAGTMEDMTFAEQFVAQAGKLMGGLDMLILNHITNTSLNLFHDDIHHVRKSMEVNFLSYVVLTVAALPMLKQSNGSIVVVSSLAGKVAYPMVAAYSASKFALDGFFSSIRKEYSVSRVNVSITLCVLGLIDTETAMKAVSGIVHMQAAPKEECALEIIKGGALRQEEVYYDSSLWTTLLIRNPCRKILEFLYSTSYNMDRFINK

For the compound `C=CC[C@@]1(c2ccc(F)cc2)CCN([C@@H](C)c2ccc(Br)cc2)C(=O)N1` (single isomer, unassigned) [Example 2 Isomer 2], the inhibition at 0.1 µM stood at 69.5%. This compound also registered an IC50 (IC50 Range) of less than 100 nM.
For the compound `C=CC[C@]1(c2ccc(F)cc2)CCN([C@@H](C)c2ccc(Br)cc2)C(=O)N1C` (single isomer, unassigned) [Example 3 Isomer 1], the inhibition at 0.1 µM amounted to 51.2%. Also, under “read-out: IC50 Range”, the IC50 is less than 100 nM.
With `C=CC[C@@]1(c2ccc(F)cc2)CCN([C@@H](C)c2ccc(Br)cc2)C(=O)N1C` (single isomer, unassigned) [Example 3 Isomer 2], the inhibition at 0.1 µM was 60.5%. Besides, the IC50 (read-out: IC50 Range) was less than 100 nM.
As for `C[C@@H](c1ccc(-c2ccc(F)cc2F)cc1)N1CC[C@](CCO)(c2ccc(F)cc2)NC1=O` (single isomer, unassigned) [Example 6 Isomer 1], the inhibition at 0.1 µM (at 100 nM) came out at 97.2%. Also, the IC50 (read-out: IC50 Range) was less than 100 nM.
Consider `C[C@@H](c1ccc(-c2ccc(F)cc2F)cc1)N1CC[C@@](CCO)(c2ccc(F)cc2)NC1=O` (single isomer, unassigned) [Example 6 Isomer 2], for which the inhibition at 0.1 µM (at 100 nM) stood at 47.7%. For the same compound, under “read-out: IC50 Range”, the half-inhibitory concentration (IC50) is less than 100 nM.
For `C[C@@H](c1ccc(-c2ccc(F)cc2F)cc1)N1CC[C@](CCCO)(c2ccc(F)cc2)NC1=O` (single isomer, unassigned) [Example 7 Isomer 1], in that order: 94.8% and less than 100 nM.
For `C[C@@H](c1ccc(-c2ccc(F)cc2F)cc1)N1CC[C@@](CCCO)(c2ccc(F)cc2)NC1=O` (single isomer, unassigned) [Example 7 Isomer 2] the same measures were 71% and less than 100 nM.
On to `C[C@@H](c1ccc(-c2ccc(F)cc2F)cc1)N1CC[C@](CC(O)CO)(c2ccc(F)cc2)NC1=O` (single isomer, unassigned) [Example 8 Isomer 1], for which the inhibition at 0.1 µM (at 100 nM) amounted to 96.3%. The IC50 (read-out: IC50 Range) was less than 100 nM.
In the case of `C[C@@H](c1ccc(-c2ccc(F)cc2F)cc1)N1CC[C@](CC(O)CO)(c2ccc(F)cc2)NC1=O` (single isomer, unassigned) [Example 8 Isomer 2], the “Average % inhibition at 100 nM” value (at 100 nM) was 94.8%. The IC50 (read-out: IC50 Range) was less than 100 nM.
On to `C[C@@H](c1ccc(-c2ccc(F)cc2)cc1)N1CC[C@](CC(O)CO)(c2ccc(F)cc2)NC1=O` (single isomer, unassigned) [Example 9 Isomer 1], for which the inhibition at 0.1 µM (at 100 nM) amounted to 94.5%. The IC50 (read-out: IC50 Range) was less than 100 nM.
As to `C[C@@H](c1ccc(-c2ccc(F)cc2)cc1)N1CC[C@](CC(O)CO)(c2ccc(F)cc2)NC1=O` (single isomer, unassigned) [Example 9 Isomer 2], for the setting “at 100 nM”, the “Average % inhibition at 100 nM” value was 93.5%. Moreover, the half-maximal inhibitory concentration (IC50) (read-out: IC50 Range) was less than 100 nM.
For `C[C@@H](c1ccc(-c2ccc(F)cc2)cc1)N1CC[C@@](CC(O)CO)(c2ccc(F)cc2)NC1=O` (single isomer, unassigned) [Example 9 Isomer 3], where the note is “at 100 nM”, the “Average % inhibition at 100 nM” value was determined as 38.5%. Further, the IC50 (read-out: IC50 Range) was less than 100 nM.
For `C[C@@H](c1ccc(-c2ccc(F)cc2)cc1)N1CC[C@@](CC(O)CO)(c2ccc(F)cc2)NC1=O` (single isomer, unassigned) [Example 9 Isomer 4] the same measures were 16.5% and greater than 100 nM.
For `C[C@@H](c1ccc(-c2ccc(F)cc2)cc1)N1CC[C@](CCCO)(c2ccc(F)cc2)NC1=O` (single isomer, unassigned) [Example 10 Isomer 1], under “at 100 nM”, the inhibition at 0.1 µM is 102%. Moreover, for the setting “read-out: IC50 Range”, the IC50 was less than 100 nM.
As for `C[C@@H](c1ccc(-c2ccc(F)cc2)cc1)N1CC[C@@](CCCO)(c2ccc(F)cc2)NC1=O` (single isomer, unassigned) [Example 10 Isomer 2], the inhibition at 0.1 µM (at 100 nM) was determined as 54.2%. The IC50 (read-out: IC50 Range) was less than 100 nM.
Take `C[C@@H](c1ccc(Br)cc1)N1CC[C@](CCCO)(c2ccc(F)cc2)N(C)C1=O` (single isomer, unassigned) [Example 11 Isomer 1]: the inhibition at 0.1 µM (at 100 nM) was determined as 64.4%. For the same compound, the IC50 (read-out: IC50 Range) was less than 100 nM.
On to `C[C@@H](c1ccc(Br)cc1)N1CC[C@@](CCCO)(c2ccc(F)cc2)N(C)C1=O` (single isomer, unassigned) [Example 11 Isomer 2], for which the inhibition at 0.1 µM (at 100 nM) was found to be 26.1%. In addition, the IC50 (read-out: IC50 Range) was greater than 100 nM.
For `C[C@@H](c1ccc(-c2ccc(F)cc2)cc1)N1CC[C@](CCCO)(c2ccccc2)NC1=O` (single isomer, unassigned) [Example 14 Isomer 1] the same measures were 95.5% and less than 100 nM.
`C[C@@H](c1ccc(-c2ccc(F)cc2)cc1)N1CC[C@@](CCCO)(c2ccccc2)NC1=O` (single isomer, unassigned) [Example 14 Isomer 2]: the inhibition at 0.1 µM (at 100 nM) is 58%. Further, for the setting “read-out: IC50 Range”, the IC50 was less than 100 nM.
Turning to `Cc1cccc(N2CC[C@](C)(c3ccccc3)NC2=O)c1` [Example 1, (R)-4-methyl-4-phenyl-1-m-tolyltetrahydropyrimidin-2(1H)-one], the IC50 (IC50 Range) fell in the range of 100 to 1000 nM. In addition, the inhibition at 0.1111 µM (read-out: Average % inhibition at 111.1 nM) worked out at 49.4%.
Take `C[C@@H](c1ccc(Cl)cc1)N1CC[C@](CCO)(c2ccc(F)cc2)NC1=O` [Example 12, (S)-1-((S)-1-(4-chlorophenyl)ethyl)-4-(4-fluorophenyl)-4-(2-hydroxyethyl)tetrahydropyrimidin-2(1H)-one]: the inhibition at 0.1 µM (at 100 nM) came to 96.9%. The IC50 (read-out: IC50 Range) was less than 100 nM.
Take `C[C@@H](c1ccc(Cl)cc1)N1CC[C@](CCCO)(c2ccc(F)cc2)NC1=O` [Example 13, 1-((1S)-1-(4-chlorophenyl)ethyl)-4-(4-fluorophenyl)-4-(3-hydroxypropyl)tetrahydropyrimidin-2(1H)-one]: the inhibition at 0.1 µM (at 100 nM) was determined as 96.1%. Further, the IC50 (read-out: IC50 Range) was less than 100 nM.
In the case of `C[C@@H](C1CCCCC1)N1CC[C@](CCCO)(c2ccccc2)NC1=O` [Example 15, (R)-1-((S)-1-cyclohexylethyl)-4-(3-hydroxypropyl)-4-phenyltetrahydropyrimidin-2(1H)-one], under “at 100 nM”, the inhibition at 0.1 µM worked out at 96.1%. For the setting “read-out: IC50 Range”, the IC50 is less than 100 nM.
`COc1ccc([C@H](C)N2CC[C@](CCCO)(c3ccc(F)cc3)NC2=O)cc1` [Example 16, (R)-4-(4-fluorophenyl)-4-(3-hydroxypropyl)-1-((S)-1-(4-methoxyphenyl)ethyl)tetrahydropyrimidin-2(1H)-one]: where the note is “at 100 nM”, the inhibition at 0.1 µM came to 96.1%. Also, the half-maximal inhibitory concentration (IC50) (read-out: IC50 Range) was less than 100 nM.
Regarding `COc1ccc([C@H](C)N2CC[C@](CCO)(c3ccc(F)cc3)NC2=O)cc1` [Example 17, (S)-4-(4-fluorophenyl)-4-(2-hydroxyethyl)-1-((S)-1-(4-methoxyphenyl)ethyl)tetrahydropyrimidin-2(1H)-one], under “at 100 nM”, the inhibition at 0.1 µM worked out at 94.3%. Besides, the IC50 (read-out: IC50 Range) is less than 100 nM.
Consider `C[C@@H](c1ccc(Br)cc1)N1CC[C@](CCCO)(c2ccc(F)cc2)NC1=O` [Example 18, (R)-1-((S)-1-(4-bromophenyl)ethyl)-4-(4-fluorophenyl)-4-(3-hydroxypropyl)tetrahydropyrimidin-2(1H)-one], for which the inhibition at 0.1 µM (at 100 nM) was found to be 97.5%. Further, the IC50 (read-out: IC50 Range) is less than 100 nM.
`C[C@@H](c1ccc(Br)cc1)N1CC[C@](CCCNS(C)(=O)=O)(c2ccc(F)cc2)NC1=O` [Example 19, N-(3-((R)-1-((S)-1-(4-bromophenyl)ethyl)-4-(4-fluorophenyl)-2-oxohexahydropyrimidin-4-yl)propyl)methanesulfonamide]: the inhibition at 0.1 µM is 96%. Besides, the IC50 (read-out: IC50 Range) is less than 100 nM.
Regarding `C[C@@H](c1ccc(Br)cc1)N1CC[C@](CC(C)(C)O)(c2ccccc2)NC1=O` [Example 20, (S)-1-((S)-1-(4-bromophenyl)ethyl)-4-(2-hydroxy-2-methylpropyl)-4-phenyltetrahydropyrimidin-2(1H)-one], the inhibition at 0.1 µM (at 100 nM) was 94.4%. Besides, the IC50 (read-out: IC50 Range) was less than 100 nM.
As for `C[C@@H](c1ccc(-c2ccn(C)c(=O)c2)cc1)N1CC[C@](CC(C)(C)O)(c2ccccc2)NC1=O` [Example 21, (S)-4-(2-hydroxy-2-methylpropyl)-1-((S)-1-(4-(1-methyl-2-oxo-1,2-dihydropyridin-4-yl)phenyl)ethyl)-4-phenyltetrahydropyrimidin-2(1H)-one], the inhibition at 0.1 µM (at 100 nM) turned out to be 93.9%. Further, the IC50 (read-out: IC50 Range) was less than 100 nM.
On to `C[C@@H](C1CCCCC1)N1CC[C@](CCCO)(c2ccccc2)N(C)C1=O` [Example 22, (R)-1-((S)-1-cyclohexylethyl)-4-(3-hydroxypropyl)-3-methyl-4-phenyltetrahydropyrimidin-2(1H)-one], for which the inhibition at 0.1 µM (at 100 nM) came to 30%. Also, under “read-out: IC50 Range”, the IC50 is greater than 100 nM.
With `C[C@@H](c1ccc(Br)cc1)N1CC[C@](CC(C)(C)C#N)(c2ccccc2)NC1=O` [Example 23, 3-((R)-1-((S)-1-(4-bromophenyl)ethyl)-2-oxo-4-phenylhexahydropyrimidin-4-yl)-2,2-dimethylpropanenitrile], the inhibition at 0.1 µM (at 100 nM) was found to be 95.8%. In addition, under “read-out: IC50 Range”, the IC50 was less than 100 nM.

These data come from patent US9079861B2, “Cyclic urea inhibitors of 11β-hydroxysteroid dehydrogenase 1” (Vitae Pharmaceuticals, Inc., priority 2007, dated 2015).
